# Source: PMC11272598, “RG7774 (Vicasinabin), an orally bioavailable cannabinoid receptor 2 (CB2R) agonist, decreases retinal vascular permeability, leukocyte adhesion, and ocular inflammation in animal models” (Frontiers in Pharmacology, 2024)
# What was measured:
# [1] = test system: LPS-induced vascular leakage; assay: LPS-induced vascular permeability in mice with EIU (fluorophotometry); type: in vivo, C57Bl6/J mice
# Description: Twenty-four female C57Bl6/J mice, 10 weeks old and weighing 18–20 g (Charles River, Sulzfeld, Germany) were housed in individually ventilated GM500 cages (Tecniplast, Pontremoli, Italy) with a maximum density of n = 4 mice with the same litter and sex. The room was kept at 20°C–24°C with 50%–60% humidity and a 12/12 h light-dark cycle. Animals were held on a standard mouse diet with ad libitum access to food and water.
# Mice were anesthetized with isoflurane 3% in 100% O2, a drop of 1% Novesin 0.4% (Omnivision, Pucheim, Germany) and a drop of Tropicamide 1% w/v (Bausch + Lomb Incorporated, Kingston, United Kingdom). Eyes were subsequently cleaned with povidone iodine 5% Ophthalmic Prep Solution (Alcon, Geneva, Switzerland) and were immediately pre-punctured with a 30-gauge needle. Both eyes were injected with a single 1 µL IVT injection of 1 ng LPS (Sigma-Aldrich, St. Louis, MO, United States) or a single injection of Dulbecco’s phosphate buffered saline (PBS) (Fisher Scientific, Schwerte, Germany) (vehicle control) using a Nanofil syringe connected to a 34-gauge needle.
# Vehicle solution [w/w] was prepared using 0.1% hydroxyethyl cellulose, 1.0% polysorbate 80, 0.18% methylparaben, and 0.02% propylparaben in 10 mM citrate (pH 6.0). RG7774 (0.6 and 2.0 mg/mL) was added to freshly prepared vehicle, stirred on a magnetic stirrer for at least 15 min, and a volume of 5 mL/kg was administered directly to the stomach of each EIU mouse using a 1 mL syringe with an oral gavage needle. Gavage was performed twice daily (6 mg/kg/day BID and 20 mg/kg/day BID) on the evening and morning prior to LPS injection, on the evening after LPS injection, and on the morning before fluorophotometry.
# Mice were anesthetized 24 h after receiving LPS or vehicle control using subcutaneous (SC) injections of fentanyl 0.05 mg/kg, medetomidine 0.5 mg/kg, and midazolam 5 mg/kg. […] Fundus infrared and fundus fluorescein angiography (FFA) images of both eyes were recorded 30 min later using optical coherence tomography (OCT)/FFA (Spectralis HRA-OCT, Heidelberg Engineering, Heidelberg, Germany) with a 55° lens focused on the optic nerve with the optic disc in the center of the image to obtain sharp images of the fundus. […] The supernatant (10 µL) was diluted in 990 µL PBS in a microcuvette (PS Micro Photometer Cuvette 2 mL, 10 mm × 10 mm × 45 mm; LP Italiana, Milan, Italy) and samples were analyzed in duplicate using the FM-2 Fluorotron (450–490 nm excitation; 520–600 nm emission detection). […]
# To quantify fluorotron measurements, raw files were generated, exported as txt. files, and plotted using Microsoft Excel. The average area under the curve (AUC) was calculated for 5 steps in each of the regions of the scans corresponding to retina, vitreous, and anterior chamber peaks. […]
# [2] = molecular target: T1, endogenous CB2R in human Jurkat cells (Homo sapiens, UniProt P34972); assay: Competition binding, [^3H]-RO6753361, Jurkat cell membranes
# T1 construct: endogenous CB2R in human Jurkat cells; endogenous in cells; host or cells: Jurkat cells
# T1 sequence (P34972 whole entry): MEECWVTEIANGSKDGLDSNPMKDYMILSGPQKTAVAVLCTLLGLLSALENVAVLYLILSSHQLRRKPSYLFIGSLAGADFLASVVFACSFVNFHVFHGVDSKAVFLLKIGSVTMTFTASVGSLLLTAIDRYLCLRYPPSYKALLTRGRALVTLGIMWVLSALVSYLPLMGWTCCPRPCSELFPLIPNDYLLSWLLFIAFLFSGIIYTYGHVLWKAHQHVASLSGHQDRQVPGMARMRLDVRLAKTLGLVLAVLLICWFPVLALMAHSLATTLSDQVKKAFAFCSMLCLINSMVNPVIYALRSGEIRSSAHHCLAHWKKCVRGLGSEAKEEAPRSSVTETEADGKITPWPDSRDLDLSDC
# Description: Competition and saturation binding assays were performed using the radiolabeled CB1R/CB2R agonist [^3H]-CP55940 (PerkinElmer, Waltham, MA, United States) in recombinant cell systems, and the newly developed CB2R-selective agonist [^3H]-RO6753361 ([Chicca et al., 2024]) in cells expressing endogenous CB1R/CB2R. Competition assays were conducted by incubating 5, 40, or 40 µg of membrane protein from CHO cells, Jurkat cells or spleen cells, respectively, with 1.5 nM [^3H]-CP55940 or 1.5 nM [^3H]-RO6753361 in the presence or absence of increasing concentrations of ligand (RG7774 or control) for 2 h at 30°C in a final volume of 0.2 mL of assay buffer (50 mmol/L Tris-HCl, 5 mmol/L MgCl2, 2.5 mmol/L EDTA, and 0.5% fatty acid-free BSA [pH 7.4] and 1% DMSO), with gentle shaking. Saturation binding assays were conducted by incubating 1–3 μg, 40 μg, or 30–40 μg of membrane protein from CHO cells, Jurkat cells, or spleen tissue, respectively, with 12 concentrations in the range of 80–0.039 nM [^3H]-CP55940 or [^3H]-RO6753361 for 2 h at 30°C in a final volume of 0.2 mL/well of assay buffer without DMSO. […] IC50 values and Hill slopes were determined with a 4-parameter logistic model using ActivityBase (ID Business Solution, Guilford, United Kingdom) and pKi values were determined using the Cheng-Prusoff equation ([Cheng and Prusoff, 1973]).
structure (smiles),measurement,setting,value
"Cn1nnnc1Cn1nnc2c(N3CC[C@H](O)C3)nc(C(C)(C)C)nc21 [RG7774, (S)-1-(5-tert-butyl-3-[(1-methyl-1H-tetrazol-5-yl)methyl]-3H-[1,2,3]triazolo[4,5-d]pyrimidin-7-yl)pyrrolidin-3-ol]",reduction of LPS-induced vascular leakage in the retina versus vehicle control,[1]; 6 mg/kg/day oral BID,102%
same,reduction of LPS-induced vascular leakage in the vitreous,[1]; 6 mg/kg/day oral BID,74%
same,reduction of LPS-induced vascular leakage in the retina versus vehicle control,[1]; 20 mg/kg/day oral BID,106%
same,reduction of LPS-induced vascular leakage in the vitreous,[1]; 20 mg/kg/day oral BID,76%
same,Ki,[2],31.9 ± 13.4 nM
